Legend:
[1] = test system: KB (Cervical cancer); assay: Xenograft study; type: in vivo, mice; conditions: IP
Excerpt: (§1) The Xenograft models used were HT-29, KB, PA-1, MCF-7, PANC-1, T24 and MDA-MB-231. The basic study design for the Xenograft study was as follows: • 1. Cell maintenance and cell suspension preparation • 2. Aseptic injection of tumor cell suspension in the donor animal • 3. Randomization of animals in respective groups • 4. IP dosing of test items in predetermined doses • 5. IP administration of standard • 6. After completion of dosing period. • 7. The Tumor volume recording weekly twice while body weight and clinical signs daily.

[2] = test system: MCF-7 (Breast cancer); assay: Xenograft study; type: in vivo, mice; conditions: MCF-7 xenograft, IP
Excerpt: as §1

[3] = test system: MDA-MB-231 (Mammary gland/breast adenocarcinoma); assay: Xenograft study; type: in vivo, mice; conditions: MDA-MB-231 xenograft, IP
Excerpt: as §1

[4] = test system: PA-1 (Ovary teratocarcinoma); assay: Xenograft study; type: in vivo, mice; conditions: PA-1 xenograft, IP
Excerpt: as §1

[5] = test system: T24 (Urinary bladder/transitional cell carcinoma); assay: Xenograft study; type: in vivo, mice; conditions: IP
Excerpt: as §1

[6] = test system: Human Primary mammary epithelial (HMEC) cells; assay: Calcein AM cytotoxicity assay; conditions: SEQ ID 2 80 μg/mL, doxorubicin 100 μM; 48h
Method: (§2) All the cancer cell lines were procured from National Centre for Cell Science, Pune (India). The cell lines were maintained under conditions as described in Table 21 below. The cell lines were sub-cultured by trypsinization followed by splitting the cell suspension into fresh flasks and supplementing with fresh culture medium.
(§3) All the cell lines were grown in specified media at 37° C. with 95% Humidity and […].
(§4) The cells were trypsinized, counted by Trypan blue method in Neuebauer's Chamber and plated in wells of flat bottom 96-well plate (dark walled plate, flat bottom) at the density corresponding to 10×10^3 cells/well/180 μl medium.
(§5) Following overnight incubation, the cells were treated with test item (20 μL) at concentrations ranging from 2.5-80 μg/mL, so that the total volume in each well is 200 μL.
(§6) The cells were incubated with the test items or positive control for a time period of 48h. Following incubation, the cell cytotoxicity was estimated using Calcein AM Cell Viability Assay Kit from R&D systems (Cat No. 4892-010-K).
(§7) Fluorescence was measured at 485 nm (excitation/528 run (emission) spectra using Synergy HT micro plate reader.
(§8) Percentage cytotoxicity wrt untreated cells was calculated using formula:
(§9) Cytotoxicity=[(RFUuntreated−RFUsample)/RFUuntreated]*100
(§10) RFU: relative fluorescence units
(§11) IC50 value was calculated using Graph-Pad Prism version 4.01 software.

[7] = test system: KB (Human cervical carcinoma); assay: Calcein AM cytotoxicity assay; conditions: SEQ ID 2 80 μg/mL, doxorubicin 100 μM; 48h
Method: as §2, §3, §4, §5, §6, §7, §8, §9, §10, §11

[8] = test system: MCF-10A (Human mammary epithelial cells); assay: Calcein AM cytotoxicity assay; conditions: SEQ ID 2 80 μg/mL, doxorubicin 100 μM; 48h
Method: as §2, §3, §4, §5, §6, §7, §8, §9, §10, §11

[9] = test system: MCF-7 (Human breast adenocarcinoma); assay: Calcein AM cytotoxicity assay; conditions: SEQ ID 2 80 μg/mL, doxorubicin 100 μM; 48h
Method: as §2, §3, §4, §5, §6, §7, §8, §9, §10, §11

[10] = test system: PA-1 (Human Ovary carcinoma); assay: Calcein AM cytotoxicity assay; conditions: SEQ ID 2 80 μg/mL, doxorubicin 100 μM; 48h
Method: as §2, §3, §4, §5, §6, §7, §8, §9, §10, §11

[11] = test system: PBMCs (Peripheral blood mononuclear cells); assay: Calcein AM cytotoxicity assay; conditions: SEQ ID 2 80 μg/mL, doxorubicin 100 μM; 48h
Method: as §2, §3, §4, §5, §6, §7, §8, §9, §10, §11

[12] = test system: PC-3 (Human Prostate Cancer); assay: Calcein AM cytotoxicity assay; conditions: SEQ ID 2 80 μg/mL, doxorubicin 100 μM; 48h
Method: as §2, §3, §4, §5, §6, §7, §8, §9, §10, §11

[13] = test system: SKOV-3 (Human Ovary adenocarcinoma); assay: Calcein AM cytotoxicity assay; conditions: SEQ ID 2 80 μg/mL, doxorubicin 100 μM; 48h
Method: as §2, §3, §4, §5, §6, §7, §8, §9, §10, §11

[14] = test system: SW620 (Human Colorectal adenocarcinoma); assay: Calcein AM cytotoxicity assay; conditions: SEQ ID 2 80 μg/mL, doxorubicin 100 μM; 48h
Method: as §2, §3, §4, §5, §6, §7, §8, §9, §10, §11

[15] = test system: ZR-75-1 (Human ductal carcinoma); assay: Calcein AM cytotoxicity assay; conditions: SEQ ID 2 80 μg/mL, doxorubicin 100 μM; 48h
Method: as §2, §3, §4, §5, §6, §7, §8, §9, §10, §11

[16] = test system: Glioblastoma (U251MG); assay: cytotoxicity in Brain Tumor Cell lines by MTT assay; conditions: 0.1 Mm-100 μM, 72 h

Question: How did the “Maximum Tumor Growth Inhibition (%)” value [1] turn out when `COc1cccc2c1C(=O)c1c(O)c3c(c(O)c1C2=O)C[C@@](O)(C(=O)CO)C[C@@H]3O[C@H]1C[C@H](N)[C@H](O)[C@H](C)O1` [Doxorubicin, reference compound] was run?
Answer: The value was 64.60%.

Question: And the “Tumor Volume (mm^3) (Mean ± SEM)” value [1]?
Answer: Its value is 616 ± 118 mm^3.

Question: What about the “Maximum Tumor Growth Inhibition (%)” value [2] of the same compound?
Answer: Its value is 65.23%.

Question: And the “Tumor Volume (mm^3) (Mean ± SEM)” value [2]?
Answer: Its value is 771 ± 65 mm^3.

Question: And the “Maximum Tumor Growth Inhibition (%)” value [3]?
Answer: The value was 42.12%.

Question: And the “Tumor Volume (mm^3) (Mean ± SEM)” value [3]?
Answer: Its value is 808.47 ± 178.59 mm^3.

Question: What about the “Maximum Tumor Growth Inhibition (%)” value [4] of the same compound?
Answer: The value was 84.48%.

Question: And the “Tumor Volume (mm^3) (Mean ± SEM)” value [4]?
Answer: The value was 631 ± 87 mm^3.

Question: And the “Maximum Tumor Growth Inhibition (%)” value [5]?
Answer: Its value is 59.07%.

Question: And the “Tumor Volume (mm^3) (Mean ± SEM)” value [5]?
Answer: Its value is 366.32 ± 34.28 mm^3.

Question: And the “Cytotoxicity at highest concentration tested” value [6]?
Answer: The value was 87.6%.

Question: And the “Cytotoxicity at highest concentration tested” value [7]?
Answer: The value was 92.0%.

Question: And the “Cytotoxicity at highest concentration tested” value [8]?
Answer: The value was 93.8%.

Question: What about the “Cytotoxicity at highest concentration tested” value [9] of the same compound?
Answer: The value was 60.7%.

Question: What about the “Cytotoxicity at highest concentration tested” value [10] of the same compound?
Answer: Its value is 82.3%.

Question: And the “Cytotoxicity at highest concentration tested” value [11]?
Answer: The value was 64.3%.

Question: What about the “Cytotoxicity at highest concentration tested” value [12] of the same compound?
Answer: The value was 75.3%.

Question: And the “Cytotoxicity at highest concentration tested” value [13]?
Answer: Its value is 61.74%.

Question: And the “Cytotoxicity at highest concentration tested” value [14]?
Answer: Its value is 93.5%.

Question: What about the “Cytotoxicity at highest concentration tested” value [15] of the same compound?
Answer: The value was 52.6%.

Question: And the “% of cytotoxicity” value [16]?
Answer: The value was 11.2%-78.6%.
